Experimental data from patent US10894054B2, “FXR agonist compositions for combination therapy” (Intercept Pharmaceuticals, Inc., priority 2015, dated 2021).

Assays:
[1] = system: DIO-NASH mice; assay: Oral glucose tolerance test (OGTT); format: in vivo, male C57BL/6 mice; settings: alone or combined, PO QD, DIO-NASH vehicle 1762 ± 45
Procedure: Blood samples were collected into 10 μL heparinized glass capillary tubes. The sample was immediately suspended in buffer (0.5 ml of glucose/lactate system solution (EKF-diagnostics, Germany) and analyzed for glucose on the test day using a BIOSEN c-Line glucose meter (EKF-diagnostics, Germany). For triglyceride and cholesterol content, 100 μl blood was collected into Lithium-Heparin tubes. Plasma was separated and samples were stored at 4° C. for one day prior to analysis.
In week 4 (LIRA and MET combinations) or week 6 (SIT combination) of treatment, an OGTT was performed in conscious free-moving animals. […] Animals were fasted for 4 h prior to test start (food removal from 6 AM to 10 AM). At t=0, mice received an oral bolus of glucose (2 g/kg) (200 mg/ml; Fresenius Kabi, Sweden) by oral gavage (10 ml/kg). Blood samples were collected from the tail vein (by snipping) and blood glucose was measured at time point 0, 15, 30, 60 and 120 minutes after the oral glucose administration. Mice were re-fed after the blood sampling and drug dosed as per usual.

[2] = system: HFD-induced rabbit model of MetS; settings: cited from earlier work
[3] = high dose: OCA 30 mg/kg, MET 150 mg/kg
[4] = low dose: OCA 10 mg/kg, MET 50 mg/kg
[5] = HFD rabbits, in vivo OCA dosing

Row | Compound | OGTT Blood Glucose AUC, Week 4 [1, 3] | OGTT Blood Glucose AUC, Week 4 [1, 4] | adipocyte size, hypoxia, and expression of perilipin and GLUT4 (SLC2A4) in VAT ([2]; HFD rabbits vs rabbits on a control diet, immunohistochemistry, Western blot, RT-PCR) | amount of visceral AT (VAT) [2, 5] | expression of steatosis and inflammation markers [2, 5] | insulin resistance and metabolic profile [2, 5]
1 | CN(C)C(=N)N=C(N)N [MET, metformin, reference compound] | 1480 ± 53 mmol·min/L | 1698 ± 31 mmol·min/L | – | – | – | –
2 | CC[C@H]1[C@@H](O)[C@@H]2[C@H](CC[C@]3(C)[C@@H]([C@H](C)CCC(=O)O)CC[C@@H]23)[C@@]2(C)CC[C@@H](O)C[C@@H]12 [OCA, 3α,7α-dihydroxy-6α-ethyl-5β-cholan-24-oic acid] | 1778 ± 88 mmol·min/L | 1680 ± 71 mmol·min/L | normalizes | marked reduction | normalizes | ameliorates insulin resistance and the metabolic profile
